Reference: patent publication US4758565A, “Substituted pyrimidoquinoxalines useful as anti-anaerobic agents” (G. D. Searle & Co., priority 1986, dated 1988)
Converted amounts (≈) assume the structure as drawn.

How the values were obtained:
B. fragilis NCTC 10581 = test: Screening panel of Bacteroides fragilis, MIC and MBC, strain A; type: cell-based; conditions: for MIC: NCTC10581, 48 hours at 37° C., anaerobic, read-out: Minimum Inhibitory Concentration (MIC); for MBC: NCTC10581, less than 5 colonies (99.9% reduction) after 48 hours, read-out: Minimum Bactericidal Concentration (MBC)
Experimental: (§1) The screening panel utilized in this example consisted of 5 strains of Bacteroides fragilis. All assays were carried out in 96-well microtitre plates. If an isolate was obtained from either a culture collection or clinical source, the isolate was immediately inoculated into Wilkins-Chalgren broth (Oxoid) and incubated at 37° C. in an anaerobic chamber in an atmosphere of 85% nitrogen, 10% carbon dioxide, and 5% hydrogen for 48 hours. At the end of this time, the viable count was about […] broth. A 1 ml aliquot of each culture was placed in an ampoule and quick frozen in acetone-dry ice mixture and stored in liquid nitrogen. […] A 2 mg sample of the test compound was dissolved in 0.2 ml of a suitable solvent such as dimethylsulfoxide, polyethylene glycol 200 or methanol. […] After addition of the test solution the final inoculum level was 10^5 cells/ml. The plates were incubated for 48 hours at 37° C. in the anaerobic chamber. The Minimum Inhibitory Concentration (MIC) was read visually. The MIC is defined as the lowest concentration at which there is no detectable growth. The Minimum Bactericidal Concentration (MBC) was determined by taking 50 μ l aliquot from each well and placing it in fresh medium. […] The strains of Bacteroides fragilis utilized in the above procedure are identified by letter in accordance with the following legend: |A B. fragilis NCTC 10581

B. fragilis NCTC 9353 = test: Screening panel of Bacteroides fragilis, MIC and MBC, strain B; type: cell-based; conditions: for MIC / MBC: Bacteroides fragilis, NCTC9353, 48 h; for MIC: read-out: Minimum Inhibitory Concentration (MIC); for MBC: read-out: Minimum Bactericidal Concentration (MBC)
Experimental: as §1, with “|B” for “|A”, “9353” for “10581”

B. fragilis NCTC 9344 = test: Screening panel of Bacteroides fragilis, MIC and MBC, strain C; type: cell-based; conditions: for MBC / MIC: Bacteroides fragilis; for MBC: NCTC9344, 48 h, read-out: Minimum Bactericidal Concentration (MBC); for MIC: NCTC9344, 48 hours at 37° C., anaerobic, read-out: Minimum Inhibitory Concentration (MIC)
Experimental: as §1, with “|C” for “|A”, “9344” for “10581”

[1] = test system: B. fragilis MZ-R ATCC 11295; test: Screening panel of Bacteroides fragilis, MIC and MBC, strain D; type: cell-based; conditions: ATCC11295, 48 h; for MIC: 48 hours at 37° C., anaerobic, read-out: Minimum Inhibitory Concentration (MIC); for MBC: less than 5 colonies (99.9% reduction) after 48 hours, read-out: Minimum Bactericidal Concentration (MBC)
B. fragilis WS-1 = test: Screening panel of Bacteroides fragilis, MIC and MBC, strain E; type: cell-based; conditions: WS1, 48 h; for MIC: 48 hours at 37° C., anaerobic, read-out: Minimum Inhibitory Concentration (MIC); for MBC: less than 5 colonies (99.9% reduction) after 48 hours, read-out: Minimum Bactericidal Concentration (MBC)
Experimental: as §1, with “|E” for “|A”, “WS-1* | *Obtained from St. Thomas's Hospital Medical School, London, United | Kingdom.” for “NCTC 10581”

[2] = test system: Clostridium perfringens NCTC 523; test: microbe, parasite or virus in culture; type: cell-based; conditions: NCTC523
[3] = test system: Clostridium difficile NCIB 10666; test: MIC vs panel of anaerobes; type: cell-based; conditions: Clostridioides difficile, NCIB10666, procedures of Example 11 (mg/L)
[4] = test system: Campylobacter fetus ss. jejuni ATCC 29428; test: MIC vs panel of anaerobes; type: cell-based; conditions: ATCC29428, procedures of Example 11 (mg/L)
[5] = test system: Campylobacter fetus ss. jejuni NCTC 10842; test: MIC vs panel of anaerobes; type: cell-based; conditions: NCTC10842, procedures of Example 11 (mg/L)
[6] = test system: Fusobacterium necrophorum ATCC 25286; test: MIC vs panel of anaerobes; type: cell-based; conditions: ATCC25286, procedures of Example 11 (mg/L)
[7] = test system: Fusobacterium necrophorum ATCC 11295; test: MIC vs panel of anaerobes; type: cell-based; conditions: ATCC11295, procedures of Example 11 (mg/L)
[8] = test system: Bacteroides melanogenicus NCTC 9336; test: MIC vs panel of anaerobes; type: cell-based; conditions: NCTC9336, procedures of Example 11 (mg/L)
Peptococcus magnus = test: MIC vs panel of anaerobes; type: cell-based; conditions: Finegoldia magna, procedures of Example 11 (mg/L)
[9] = test system: Peptostreptococcus anaerobius; test: MIC vs panel of anaerobes; type: cell-based; conditions: procedures of Example 11 (mg/L)
[10] = test system: Propionebacterium acnes NCTC 7337; test: MIC vs panel of anaerobes; type: cell-based; conditions: procedures of Example 11 (mg/L)
B. fragilis 23745 = test: In vivo anti-anaerobe activity, mouse hepatic necrosis; conditions: 40 mg/kg (p.o)
[11] = less than 5 colonies (99.9% reduction) after 48 hours

Compound `CCC1(C)CN=C2C(c3ccc(C)cc3)=[N+]([O-])c3cc(C(F)(F)F)ccc3N2C1` (stereo not drawn) [Example 6, 2,3-Dihydro-2-ethyl-2-methyl-5-(4-methylphenyl)-8-trifluoromethyl-1H-pyrimdo [1,2-a]quinoxaline 6-oxide] has an MIC (B. fragilis NCTC 10581) of 6.2 µg/mL (≈ 15.4 µM), an MBC (B. fragilis NCTC 10581) of 6.2 µg/mL (≈ 15.4 µM) and an MIC (B. fragilis NCTC 9353; 48 hours at 37° C., anaerobic) of 6.2 µg/mL (≈ 15.4 µM). The MBC (B. fragilis NCTC 9353; [11]) was 6.2 µg/mL (≈ 15.4 µM), the MBC (B. fragilis NCTC 9344; [11]) was 3.1 µg/mL (≈ 7.72 µM) and the MIC (B. fragilis NCTC 9344) was 3.1 µg/mL (≈ 7.72 µM). The MIC [1] was 1.5 µg/mL (≈ 3.74 µM), the MBC [1] was 3.1 µg/mL (≈ 7.72 µM) and the MIC (B. fragilis WS-1) was 3.1 µg/mL (≈ 7.72 µM). For the same compound, the MBC (B. fragilis WS-1) was 3.1 µg/mL (≈ 7.72 µM).
In the case of `Cc1ccc(C2=[N+]([O-])c3cc(C(F)(F)F)ccc3N3CC(C)(C)CN=C23)cc1` [Example 3, 2,3-Dihydro-2,2-dimethyl-5-(4-methylphenyl)-8-trifluoromethyl-1H-pyrimid [1,2-a]quinoxaline 6-oxide], the MIC (B. fragilis NCTC 10581) is reported as < 0.8 µg/mL, the MBC (B. fragilis NCTC 10581) is reported as < 0.8 µg/mL and the MIC (B. fragilis NCTC 9353; 48 hours at 37° C., anaerobic) is reported as 1.5 µg/mL (≈ 3.87 µM). It also gave an MBC (B. fragilis NCTC 9353; [11]) of 1.5 µg/mL (≈ 3.87 µM), an MBC (B. fragilis NCTC 9344; [11]) of 3.1 µg/mL (≈ 8 µM) and an MIC (B. fragilis NCTC 9344) of 3.1 µg/mL (≈ 8 µM). The MIC [1] was 1.5 µg/mL (≈ 3.87 µM), the MBC [1] was 6.2 µg/mL (≈ 16 µM) and the MIC (B. fragilis WS-1) was < 0.8 µg/mL. The MBC (B. fragilis WS-1) was 1.5 µg/mL (≈ 3.87 µM), the MIC [2] was < 0.8 µg/mL and the MIC [3] was < 0.8 µg/mL. For the same compound, the MIC [4] was > 100 µg/mL, the MIC [5] was 12.5 µg/mL (≈ 32.3 µM) and the MIC [6] was < 0.8 µg/mL. For the same compound, the MIC [7] was 6.2 µg/mL (≈ 16 µM), the MIC [8] was > 100 µg/mL and the MIC (Peptococcus magnus) was > 100 µg/mL. The MIC [9] was > 100 µg/mL and the MIC [10] was > 100 µg/mL.
In the case of `CC1(C)CN=C2C(c3ccccc3)=[N+]([O-])c3cc(C(F)(F)F)ccc3N2C1` [Example 1, 2,3-Dihydro-2,2-dimethyl-5-phenyl-8-trifluoromethyl-1H-pyrimido[1,2-a]quinoxaline 6-oxide], the MIC (B. fragilis NCTC 10581) is reported as 3.1 µg/mL (≈ 8.3 µM), the MBC (B. fragilis NCTC 10581) is reported as 3.1 µg/mL (≈ 8.3 µM) and the MIC (B. fragilis NCTC 9353; 48 hours at 37° C., anaerobic) is reported as 1.5 µg/mL (≈ 4.02 µM). For the same compound, the MBC (B. fragilis NCTC 9353; [11]) was 1.5 µg/mL (≈ 4.02 µM), the MBC (B. fragilis NCTC 9344; [11]) was 3.1 µg/mL (≈ 8.3 µM) and the MIC (B. fragilis NCTC 9344) was 1.5 µg/mL (≈ 4.02 µM). The MIC [1] was 0.8 µg/mL (≈ 2.14 µM), the MBC [1] was 0.8 µg/mL (≈ 2.14 µM) and the MIC (B. fragilis WS-1) was 1.5 µg/mL (≈ 4.02 µM). The MBC (B. fragilis WS-1) was 1.5 µg/mL (≈ 4.02 µM), the MIC [2] was 1.5 µg/mL (≈ 4.02 µM) and the MIC [3] was < 0.8 µg/mL. For the same compound, the MIC [4] was 100 µg/mL (≈ 268 µM), the MIC [5] was > 100 µg/mL and the MIC [7] was 1.5 µg/mL (≈ 4.02 µM). The MIC [8] was > 100 µg/mL, the MIC [9] was 100 µg/mL (≈ 268 µM) and the MIC [10] was 100 µg/mL (≈ 268 µM).
In the case of `CC1(C)CN=C2C(c3ccccc3)=[N+]([O-])c3cccc(F)c3N2C1` [Example 5, 2,3-Dihydro-2,2-dimethyl-10-fluoeo-5-phenyl-1H-pyrimido [1,2-a]quinoxaline 6-oxide], the MIC (B. fragilis NCTC 10581) is reported as < 0.8 µg/mL, the MBC (B. fragilis NCTC 10581) is reported as 1.5 µg/mL (≈ 4.64 µM) and the MIC (B. fragilis NCTC 9353; 48 hours at 37° C., anaerobic) is reported as < 0.8 µg/mL. The MBC (B. fragilis NCTC 9353; [11]) was < 0.8 µg/mL, the MBC (B. fragilis NCTC 9344; [11]) was < 0.8 µg/mL and the MIC (B. fragilis NCTC 9344) was < 0.8 µg/mL. The MIC [1] was < 0.8 µg/mL, the MBC [1] was < 0.8 µg/mL and the MIC (B. fragilis WS-1) was < 0.8 µg/mL. For the same compound, the MBC (B. fragilis WS-1) was < 0.8 µg/mL.
In the case of `CCC1(C)CN=C2C(c3ccccc3)=[N+]([O-])c3cc(C(F)(F)F)ccc3N2C1` (stereo not drawn) [Example 4, 2,3-Dihydro-2-ethyl-2-methyl-5-phenyl-8-trifluoromethyl-1H-pyrimido [1,2-a]quinoxaline 6-oxide], the MIC (B. fragilis NCTC 10581) is reported as < 0.8 µg/mL, the MBC (B. fragilis NCTC 10581) is reported as 1.5 µg/mL (≈ 3.87 µM) and the MIC (B. fragilis NCTC 9353; 48 hours at 37° C., anaerobic) is reported as < 0.8 µg/mL. For the same compound, the MBC (B. fragilis NCTC 9353; [11]) was < 0.8 µg/mL, the MBC (B. fragilis NCTC 9344; [11]) was < 0.8 µg/mL and the MIC (B. fragilis NCTC 9344) was < 0.8 µg/mL. The MIC [1] was < 0.8 µg/mL, the MBC [1] was < 0.8 µg/mL and the MIC (B. fragilis WS-1) was < 0.8 µg/mL. The MBC (B. fragilis WS-1) was < 0.8 µg/mL.
With `Cc1ncc([N+](=O)[O-])n1CCO` [Metronidazole, reference compound] the MIC (B. fragilis NCTC 10581) was < 0.8 µg/mL, the MBC (B. fragilis NCTC 10581) was < 0.8 µg/mL and the “Minimum Inhibitory Concentration (MIC)” value (B. fragilis NCTC 9353; 48 hours at 37° C., anaerobic) was 1.5 µg/mL. The MIC (B. fragilis NCTC 9353; 48 hours at 37° C., anaerobic) was < 0.8 µg/mL, the MBC (B. fragilis NCTC 9353; [11]) was < 0.8 µg/mL and the “Minimum Bactericidal Concentration (MBC)” value (B. fragilis NCTC 9353; [11]) was 1.5 µg/mL. For the same compound, the MBC (B. fragilis NCTC 9344; [11]) was 1.5 µg/mL (≈ 8.76 µM), the MIC (B. fragilis NCTC 9344) was < 0.8 µg/mL and the “Minimum Bactericidal Concentration (MBC)” value (B. fragilis NCTC 9344; [11]) was < 0.8 µg/mL. For the same compound, the “reduction in B. fragilis” value (B. fragilis 23745) was 3-3.5 log10.
`CC1(C)CN=C2C(c3ccccc3)=[N+]([O-])c3ccc(F)cc3N2C1` [Example 2, 2,3-Dihydro-2,2-dimethyl-9-fluoro-5-phenyl-1H-pyrimido [1,2-a]quinoxaline 6-oxide] was tested, and the MIC (B. fragilis NCTC 9353; 48 hours at 37° C., anaerobic) was < 0.8 µg/mL, the MBC (B. fragilis NCTC 9353; [11]) was < 0.8 µg/mL and the MBC (B. fragilis NCTC 9344; [11]) was 1.5 µg/mL (≈ 4.64 µM). The MIC (B. fragilis NCTC 9344) was < 0.8 µg/mL, the MIC [1] was < 0.8 µg/mL and the MBC [1] was < 0.8 µg/mL. For the same compound, the MIC (B. fragilis WS-1) was < 0.8 µg/mL, the MBC (B. fragilis WS-1) was < 0.8 µg/mL and the MIC [2] was 3.1 µg/mL (≈ 9.59 µM). For the same compound, the MIC [3] was 3.1 µg/mL (≈ 9.59 µM), the MIC [4] was 25 µg/mL (≈ 77.3 µM) and the MIC [5] was 50 µg/mL (≈ 155 µM). For the same compound, the MIC [6] was < 0.8 µg/mL, the MIC [7] was 3.1 µg/mL (≈ 9.59 µM) and the MIC [8] was 50 µg/mL (≈ 155 µM). The MIC (Peptococcus magnus) was < 0.8 µg/mL, the MIC [9] was 1.5 µg/mL (≈ 4.64 µM) and the MIC [10] was 50 µg/mL (≈ 155 µM).
